Reference: patent US6486179B2, “Use of protein kinase C inhibitors to enhance the clinical efficacy of oncolytic agents and radiation therapy” (Eli Lilly and Company, priority 1996, dated 2002)

Legend:
protein kinase C = settings: statement in words, cited from earlier work
[1] = system: Human leukemia cells U937; assay: Viability of U937 cells after γ-irradiation (propidium iodide exclusion, FACS); format: cell-based; settings: 3 nM bryostatin 1 for 24 hours, then 500 or 1000 rads; viability 72 hours after irradiation; triplicate
Protocol: Human leukemia cells U937 were treated for 24 hours with either 3 nM bryostatin 1 or the control solution, i.e., the vehicle for bryostatin 1. The cells were then irradiated with either 500 or 1000 rads of γ-irradiation. Seventy-two hours after irradiation, cellular viability was examined using propidium iodide exclusion and quantified by FACS analysis as previously described in Ways et al., Cell Growth & Differentiation 1994, 5: 1195-1203. Viability assays were performed in triplicate. […] Similar results were obtained in several repeated experiments.

PKC-β = target: T1, PKC-β (Homo sapiens, UniProt P05771); assay: Western blot of PKC-β in bryostatin 1 treated U937 cells; format: cell-based
T1 construct: endogenous in cells; host or cells: U937 human leukemia cells
T1 sequence (P05771 whole entry): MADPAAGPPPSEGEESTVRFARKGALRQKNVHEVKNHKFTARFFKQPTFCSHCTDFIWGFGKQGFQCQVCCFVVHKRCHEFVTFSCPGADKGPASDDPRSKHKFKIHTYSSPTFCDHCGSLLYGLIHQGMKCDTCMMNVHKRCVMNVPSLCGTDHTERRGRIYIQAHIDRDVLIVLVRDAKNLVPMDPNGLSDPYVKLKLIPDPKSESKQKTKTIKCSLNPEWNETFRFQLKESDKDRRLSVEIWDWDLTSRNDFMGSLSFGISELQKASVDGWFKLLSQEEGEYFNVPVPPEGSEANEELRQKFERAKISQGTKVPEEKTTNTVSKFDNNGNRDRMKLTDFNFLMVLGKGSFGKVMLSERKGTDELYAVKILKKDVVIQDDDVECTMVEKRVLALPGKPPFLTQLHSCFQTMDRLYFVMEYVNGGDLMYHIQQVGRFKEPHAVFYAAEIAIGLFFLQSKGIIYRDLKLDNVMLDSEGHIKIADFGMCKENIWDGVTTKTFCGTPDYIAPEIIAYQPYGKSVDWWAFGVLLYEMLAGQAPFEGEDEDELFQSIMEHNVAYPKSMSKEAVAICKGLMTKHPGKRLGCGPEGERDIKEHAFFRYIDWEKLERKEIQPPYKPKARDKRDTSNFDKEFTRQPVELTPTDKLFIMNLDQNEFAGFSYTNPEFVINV
Protocol: Human leukemia cells U937 in the amount of 0.5×10^6 were treated with various amount of bryostatin 1 for 24 hours. Subsequently, the cells were solubilized for preparation of protein samples according to a routine procedure. The protein samples from bryostatin treated cells were then used in Western blot analysis with a protein kinase C-β specific antiserum previously described in Ways et al., Cell Growth & Differentiation 1994, 5: 1195-1203. […] In a repeated experiment, similar results were obtained.

Row | SMILES | isozyme selectivity (protein kinase C; selective to protein kinase C over other kinases) | protein kinase C inhibition (protein kinase C; no value) | γ-irradiation-induced apoptosis [1] | time within which bryostatin treatment caused PKC-β activity to decrease (PKC-β; 1 nM bryostatin) [h] | time within which bryostatin treatment caused PKC-β activity to decrease (PKC-β; 10 nM bryostatin) [h]
1 | CN(C)C[C@@H]1CCn2cc(c3ccccc32)C2=C(C(=O)NC2=O)c2cn(c3ccccc23)CCO1.Cl [Example 5g, (S)-3,4-[N, N′-1,1′-((2″-ethoxy)-3′″(O)-4′″-(N,N-dimethylamino)-butane)-bis-(3,3′-indolyl)]-1(H)-pyrrole-2,5-dione Hydrochloride Salt] | selective for the beta-1 and beta-2 isozymes | potent protein kinase C inhibitor | – | – | –
2 | CCC/C=C/C=C/C(=O)O[C@H]1/C(=C/C(=O)OC)C[C@H]2C[C@H]([C@@H](C)O)OC(=O)C[C@H](O)C[C@@H]3C[C@H](OC(C)=O)C(C)(C)[C@](O)(C[C@@H]4C/C(=C/C(=O)OC)C[C@H](/C=C/C(C)(C)[C@]1(O)O2)O4)O3 [bryostatin 1] | – | – | enhanced | ≤ 24 | ≤ 2
